From a melting point compilation (Tetko et al.; mined from patent text by program, amines drawn as free bases though some values may be those of a salt) come the findings set out here.

For orientation: melting point means the temperature of the solid-liquid transition. As to `NC1=Nc2ncccc2OC1`, the melting point lay within 173 to 174 °C.
`CCCC(=O)Nc1n[nH]c2cc(-c3ccc([N+](=O)[O-])cc3)ccc12` registered a melting point of 250 °C.
In turn, `CCOC(=O)c1c(N=Cc2ccc(-c3cccs3)s2)sc(N=Cc2ccc(-c3cccs3)s2)c1C(=O)OCC` registered a melting point of 130 to 132 °C.
Next, `Cn1cnc2nc(-c3ccc(-c4ccccc4)cc3)nn2c1=S`: 297 to 299 °C; `CNC1CCN(c2ncc(C(F)(F)F)s2)C1=O` (centres undefined): 108 to 109 °C; `CCOC(=O)c1c(NC=CC(=O)C(C)C)sc(-c2ccccc2)c1C`: 104 to 108 °C.
The figure for `COc1ccc(N2CCCN(/C(C)=C(/C#N)C(N)=S)CC2)cn1` is 159 to 161 °C; for `C=CCN(CC=C)CCCCC(=O)c1ccc2c(c1)Cc1cc(C(=O)CCCCN(CC=C)CC=C)ccc1O2` it is 54 to 55 °C.
The figure for `COc1cc(N)c(Cl)cc1C(=O)NC1CCN(CC2CCN(C(=O)c3ccccc3)CC2)CC1` is 114 to 116 °C.
Compound `COc1ccc(N2CCN(c3c(C)c(C)c4c(c3C)CC(C)(C)O4)CC2)cc1OC` yielded a melting point of 135 to 137 °C.
Next, `CCOC(=O)c1c(CN(CC)CC)nc2sc3c(c2c1-c1ccc(Cl)cc1)CCN(C(=O)c1ccccc1)C3`: 177 to 178 °C; `Cn1nnc(CC[C@H]2CC[C@@H](c3ccc(F)cc3)N2S(=O)(=O)c2ccc(Cl)cc2)n1` (racemic): 122 °C; `O=C1CC(C(F)(F)F)CC(=O)N1c1cc(OCC=C(Cl)Cl)c(Cl)cc1F`: 106 to 108 °C.
In turn, `CC(C)(C)NC(=O)c1cc(F)ccc1N` registered a melting point of 77 to 78 °C.
Next, `O=C(Nc1ccc(C(=O)N2Cc3cccnc3Oc3ccccc32)cn1)c1ccccc1-c1ccccc1`: 107 to 114 °C; `CN(C)C(=O)c1nc2n(n1)-c1ccc(Cl)cc1C(c1ccccc1)=NC2`: 135 to 137 °C; `COc1ccc2[nH]cc(/C(C#N)=C/c3ccc(Cl)nc3)c2c1`: 184 °C.
Next, `NC1Cc2ccccc2N(C(=O)c2ccc(NC(=O)c3cc(Cl)cc(Cl)c3)cc2)C1` (centres undefined): 207 to 210 °C; `Cc1ccc(S(=O)(=O)NC(=O)/C=C/c2c(C)nn(C)c2-n2ccc3cccnc32)cc1`: 237 to 238 °C; `CC(C)(C(=O)OCC(=O)c1ccccc1)n1c(=O)[nH]c2cc(F)c(F)cc2c1=O`: 174 to 176 °C.
The figure for `OC1c2cc(OCc3ccc4ccccc4n3)ccc2OCC1Oc1ccccc1` (centres undefined) is 151 to 153 °C; for `O=C1CC(CI)C(=O)N1c1ccc(F)cc1` (centres undefined) it is 156 °C; for `O=C(O)Cn1cccc(NS(=O)(=O)Cc2ccccc2)c1=O` it is 186 to 187 °C.
Take `CCOC(=O)c1[nH]cc(C)c(=O)c1C`: the melting point is 124 to 126 °C.
The figure for `CCCN1CC(=O)C(C(=O)OCC)C1=O` (centres undefined) is 123 to 125 °C.
`CC(=O)OC1CSC(Sc2ccc(C#N)cc2)C(OC(C)=O)C1OC(C)=O` (centres undefined) showed a melting point of 155 °C.
Next, `CCOC(=O)CNc1ccc(NS(C)(=O)=O)cc1`: 135 to 138 °C.
Next, `CCCn1c([N+](=O)[O-])cnc1-c1cnc(N)s1`: 234 to 236 °C; `c1cc2cc(-c3cnc(O[C@H]4CCN5CCC[C@@H]4C5)nc3)ccc2[nH]1`: 195 to 199 °C; `NC1=NN(c2ccc3ccccc3c2)CC1`: 190 to 191 °C.
Next, `CC1(C)C2CCC1(C(=O)P(=O)(c1ccccc1)c1ccccc1)C(=O)C2=O` (centres undefined): 92.1 °C.
Turning to `CCCCCCCCC(O)C=Cc1cccc(Oc2cccc(C(=O)O)c2)n1` (racemic), the melting point is 85 to 87 °C.
Next, `CC(=O)c1ccc(NC(=O)NCCCN(CCCNC(=O)Nc2ccc(C(C)=O)cc2)CCCNC(=O)Nc2ccc(C(C)=O)cc2)cc1`: 184 to 185 °C; `Cc1onc(NS(=O)(=O)c2cccc([N+](=O)[O-])c2)c1Br`: 137 to 139 °C.
The figure for `CCCCOc1c(CO)n(CC2CC2)c(=O)c2ccc(OCc3ccccc3)cc12` is 96 to 97 °C; for `CC(C)c1cc(OCCN2CCOCC2)cc2c1C(=O)N(COc1cc(=O)n3cccc(OCCCN4CCOCC4)c3n1)S2(=O)=O` it is 145 to 150 °C; for `CC1(C)CCC(OC2=C(c3ccc(S(C)(=O)=O)cc3)C(C)(C)OC2=O)C1` (centres undefined) it is 99 to 100 °C.
Next, `COc1cc2ccc(-c3ccccc3[N+](=O)[O-])cc2cc1OC`: 244 to 246 °C.
Turning to `CCCCCC[C@@H](C)Oc1cc2sc(C(=O)OC)c(O)c2cc1[N+](=O)[O-]`, the melting point is 54 to 55 °C.
The figure for `Cn1c(C(F)(F)F)ccc(-c2cc(N)c(Cl)cc2F)c1=O` is 155 to 157 °C; for `CCCNCC1CCN(c2nc3c(cc2F)c(=O)c(C(=O)O)cn3C2CC2)C1` (centres undefined) it is 230 to 233 °C.
The figure for `O=c1[nH]c(CCCl)c(Cl)c(=O)[nH]1` is 225 °C.
The figure for `CCn1c(=O)c2cnn3c2n(c1=O)CC=C3c1cccc(C(F)(F)F)c1` is 161 to 163 °C; for `COc1cc(C(=O)N2CCC(CCN3CCCN(c4nc5ccccc5n4CCCC(C)=O)CC3)(c3ccccc3)C2)cc(OC)c1OC` (centres undefined) it is 95 to 112 °C.
In the case of `O=C(O)CCCCCCCCn1cc(-c2ccccc2)c(-c2ccccc2)nc1=O`, the melting point was 120 to 123 °C.
Take `Cc1[nH]c2ncnc(Nc3cccc(Br)c3)c2c1C`: the melting point is 243 to 244 °C.
The figure for `CCCC(O)c1ccc(C(=O)O)cc1` (centres undefined) is 109 to 113 °C; for `CCc1oc2ccccc2c1C(=O)NCc1ccc2c(Br)c(OC(Cc3ccccc3)C(=O)O)ccc2c1` (centres undefined) it is 162 to 165 °C.
Next, `Cc1ccc(S(=O)(=O)c2ccc3c(c2)c(CCNC(=O)OC(C)(C)C)cn3C)cc1`: 144 to 148 °C.
Next, `CCN(CC)CCNc1cccc2c1C(=O)c1cccc(NCCN(CC)CC)c1C2=O`: 158 to 160 °C.
In turn, `CC(C)(C)C(=O)Oc1n[nH]c(=O)c2nc3cc(Cl)ccc3c(O)c12` registered a melting point of 352 to 357 °C.
The figure for `c1ccc(CNc2ccncc2)cc1` is 108 to 110 °C; for `OCc1cc2ccsc2s1` it is 85 to 87 °C; for `NC(=O)c1c(C(F)(F)F)oc2cc(O)ccc2c1=O` it is above 310 °C.
The figure for `CCCCC(=O)Nc1ccccc1C(N)=O` is 119 to 120 °C; for `CCOC(=O)c1cnc(N(C)C)nc1` it is 65 °C; for `CC(C#Cc1ccc(F)cc1)N(O)C(N)=O` (centres undefined) it is 156 to 158 °C.
The figure for `N#Cc1cc(F)c(NC(=O)C=C(N)C(F)(F)F)cc1F` is 127 °C.
In turn, `O=C(O)C1CC(=O)N(Cc2ccccc2)C1C(=O)N(Cc1ccccc1)Cc1ccccc1` (centres undefined) returned a melting point of 123 to 125 °C.
With `CCCCC(=N)NC(=O)Nc1ccc(OC)cc1`, the melting point was 144 to 145 °C.
On to `CN(C)C(=Nc1ccccc1N1CCOCC1)N1CCOCC1`, for which the melting point fell in the range of 126 to 128 °C.
Next, `CN1CC(O)N(c2cc(C(C)(C)C)on2)C1=O` (centres undefined): 173 to 177 °C; `CN(CCC(Oc1ccc(C(=O)c2ccc3ccccc3c2)cc1)c1ccccc1)CC(=O)O` (centres undefined): 77 to 89 °C; `CCCCCCCCCCNS(=O)(=O)c1ccc(OC)cc1`: 53 to 54.5 °C.
`CC1Cc2cc(C(O)C(C)N3CCC(n4c(=O)[nH]c5ccccc54)CC3)ccc2S1` (centres undefined) gave a melting point of 220 to 222 °C.
The figure for `NS(=O)(=O)c1cc(CCNC(=O)C=Cc2cccs2)ccc1OCC1CCCCO1` (centres undefined) is 106 °C.
The figure for `CC(C)(C)OC(=O)C=C(c1ccc(C#N)cc1)n1ccnc1` is 151 to 153 °C.
Next, `CCCCCCCCCCCCCCCCCCOc1cc(C(=O)O)cc([N+](=O)[O-])c1`: 101 to 103 °C; `COc1ccc2oc(C(=O)Nc3ccc(-c4ccc(S(=O)(=O)NC(C(=O)O)C(C)C)cc4)cc3)cc2c1` (centres undefined): 257 to 259 °C; `O=c1[nH]c(CCCN2CCCC2)cc2ccccc12`: 117 to 119 °C.
The compound `CC(C)C1(C(C)C)C(=O)N=C2c3ccccc3C(=O)N21` returned a melting point of 146 to 148 °C.
Next, `COC(=O)C1CCC2C3CCC4CC(O)C(O)CC4(C)C3C(NC3CCCCC3)CC12C` (centres undefined): 199 to 202 °C.
`N/C(=C1/Sc2ccccc2C1=O)c1ccccc1C(F)(F)F` displayed a melting point of 148 to 149 °C.
`Oc1ncnc2c1CCOc1ccccc1-2` had a melting point of 241 to 243 °C.
The compound `CCOC(=O)C(C#N)=NC=C(N)c1ccccc1` gave a melting point of 139 to 140 °C.
Next, `CC(C(=O)c1ccc(O)cc1)N1CCC(O)(c2ccccc2)CC1` (centres undefined): 95 to 97 °C.
The figure for `O=c1ccc(S(=O)(=O)n2cccc2)n[nH]1` is 140 to 145 °C.
Compound `COC(=O)[C@@H](N=[N+]=[N-])[C@@H](O)c1ccccc1` showed a melting point of 40 to 41 °C.
On to `O=C1c2ccccc2C(=O)N1C1CN(C(c2ccccc2)c2ccccc2)C1`, for which the melting point lay within 118 to 120 °C.
Next, `C=CCOC(=O)Cc1cccc(NC(=O)NCNC(=O)c2ccccc2C(=O)c2ccccc2)c1`: 125 to 127 °C; `CS(=O)(=O)OC1CCc2ccccc2C1` (centres undefined): 60 to 62 °C; `CC(C)c1ccc(O[C@@H](Cc2ccc(OCCNC(=O)c3ccc(-c4ccccn4)cc3)cc2)C(=O)O)cc1`: 100 to 101 °C.
As for `CN1CCNC(=O)c2cccc(N)c21`, the melting point lay in the range of 130 to 133 °C.
The compound `CC(C)(C)OC(=O)N1CCc2c(n(CCO)c3c(Cl)cc(Cl)cc23)CC1` came in with a melting point of 183 to 184 °C.
The figure for `CCOC(=O)c1ccc(-c2nc(COc3ccc(CO)cc3OC)c(C)o2)o1` is 105 to 106 °C.
On to `Cn1c(C(F)(F)F)cc(=O)n(-c2c(F)cc(Cl)c3c2OC(C)(C)C3=O)c1=O`, for which the melting point fell in the range of 160 to 162 °C.
The figure for `CC(=O)N1CCC2(CC1)C(=O)NC(=O)N2c1ccc(C)cc1` is 295 to 297 °C.
Next, `COC(=O)[C@@H]1NC(=O)[C@@H]1NC(=O)OC(C)(C)C` (relative stereo): 140 to 144 °C; `COc1ccc(C2=Nc3ccc(N4CCCC4)cc3C(=O)C2)cc1`: 312 to 313 °C.
